Data from patent publication US20180312493A1, “Antibiotic Compounds, Pharmaceutical Formulations Thereof And Methods And Uses Therefor” (Simon Fraser University, priority 2015, published 2018).
Converted amounts (≈) assume the structure as drawn.

What was measured:
MRSA Pyk = biological target: T1, MRSA Pyk (Staphylococcus aureus, UniProt Q6GG09); assay: MRSA pyruvate kinase (PK) activity, continuous LDH-coupled assay; type: biochemical, methicillin resistant S. aureus (MRSA252)
T1 construct: made in house; host or cells: E. coli BL-21 (DE3)
T1 sequence (Q6GG09 whole entry): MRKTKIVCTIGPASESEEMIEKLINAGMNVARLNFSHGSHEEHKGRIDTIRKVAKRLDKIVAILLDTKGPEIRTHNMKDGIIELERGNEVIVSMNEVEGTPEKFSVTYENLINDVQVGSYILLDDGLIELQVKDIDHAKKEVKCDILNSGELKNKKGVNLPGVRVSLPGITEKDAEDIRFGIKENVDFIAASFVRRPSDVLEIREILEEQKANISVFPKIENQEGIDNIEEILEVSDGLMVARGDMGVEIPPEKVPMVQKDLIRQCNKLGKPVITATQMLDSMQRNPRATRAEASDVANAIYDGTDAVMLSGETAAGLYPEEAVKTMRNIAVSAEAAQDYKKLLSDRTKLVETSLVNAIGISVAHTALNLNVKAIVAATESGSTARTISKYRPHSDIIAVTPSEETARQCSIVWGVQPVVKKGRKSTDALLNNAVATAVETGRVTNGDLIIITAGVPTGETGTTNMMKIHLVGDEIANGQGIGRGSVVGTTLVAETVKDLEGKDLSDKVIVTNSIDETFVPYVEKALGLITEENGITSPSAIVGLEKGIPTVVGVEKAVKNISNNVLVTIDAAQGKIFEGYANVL
Outline: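 His-tagged MRSA PK (strain Sanger 252) and human PK isoforms expressed in E. coli BL-21 (DE3) and Ni-NTA purified, used at 15 nM in an LDH-coupled assay following NADH oxidation at 340 nm, 30° C, up to 5 min, ≤1% DMSO. IC50 from four-parameter variable-slope fit; Ki with PEP 2-20 mM, ADP fixed 2 mM, inhibitor 0-400 nM.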

S. aureus (ATCC29213) = assay: In vitro susceptibility, broth microdilution (MIC); type: cell-based; details: Staphylococcus aureus; S. aureus ATCC29213; 18-24 h, 37 C; read-out: Antimicrobial activity (MIC) S. aureus ATCC29213
Outline: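 CLSI 2-fold serial broth microdilution; K. pneumoniae C238 grown in L-broth, S. aureus ATCC 29213 in Mueller Hinton broth, plates incubated 18–24 h at 37 °C. MIC taken as lowest concentration giving complete growth inhibition by OD600 versus compound-free wells, background-subtracted.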

[1] = test system: A. baumannii (ATCC 17978); assay: In vitro susceptibility, broth microdilution (MIC); type: cell-based; details: Acinetobacter baumannii, ATCC17978; A. baumannii ATCC 17978 (values marked *); read-out: Antimicrobial activity (MIC) A. baumannii
Outline: (§1)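 MIC determined by CLSI 2-fold broth microdilution in cation-adjusted Mueller–Hinton broth at ~2.5×10^5 CFU/ml, final compound 0.031–64 μg/ml, 18–24 h at 37 °C. MIC is the lowest concentration giving complete growth inhibition by background-corrected OD600 versus compound-free wells; duplicate or triplicate wells, replicated at least twice.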

MRSA (ATCC BAA-1762) = assay: In vitro susceptibility, broth microdilution (MIC); type: cell-based, methicillin resistant S. aureus; details: Staphylococcus aureus; MRSA ATCC BAA-1762; read-out: Antimicrobial activity (MIC) MRSA ATCC BAA1762
Outline: as §1

VRE#2 (2010A) = assay: In vitro susceptibility, broth microdilution (MIC); type: cell-based, vancomycin resistant Enterococci; details: VRE#2 (2010A); read-out: Antimicrobial activity (MIC) VRE#2
Outline: as §1

Structure (SMILES) | IC50 (MRSA Pyk) [nM] | MIC (S. aureus (ATCC29213)) [µg/mL] | MIC [1] [µg/mL] | MIC (MRSA (ATCC BAA-1762)) [µg/mL] | MIC (VRE#2 (2010A)) [µg/mL]
NC(=O)[C@@H]1CCCN1CCNC(=O)c1c(-c2cc3cc(Cl)ccc3[nH]2)[nH]c2cc(Br)ccc12 [Compound 120, (S)-6-Bromo-N-(2-(2-carbamoylpyrrolidin-1-yl)ethyl)-5′-chloro-1H,1′H-[2,2′-biindole]-3-carboxamide] | < 100 | > 64 | > 64 | – | –
COCC(=O)N1CCCN(CCNC(=O)c2c(-c3cc4cc(Cl)ccc4[nH]3)[nH]c3cc(Br)ccc23)CC1 [Compound 121, 6-Bromo-5′-chloro-N-(2-(4-(2-methoxyacetyl)-1,4-diazepan-1-yl)ethyl)-1H,1′H-[2,2′-biindole]-3-carboxamide] | < 100 | > 64 | > 64 | – | –
O=C(NCCN1CCC[C@H]1C(=O)O)c1c(-c2cc3cc(Cl)ccc3[nH]2)[nH]c2cc(Br)ccc12 [Compound 125, (2-(6-Bromo-5′-chloro-1H,1′H-[2,2′-biindole]-3-carboxamido)ethyl)-L-proline] | < 100 | > 64 | > 64 | – | –
O=C1CN(CCNC(=O)c2c(-c3cc4cc(Cl)ccc4[nH]3)[nH]c3cc(Br)ccc23)CCN1 [Compound 127, 6-bromo-5′-chloro-N-(2-(3-oxopiperazin-1-yl)ethyl)-1H,1′H-2,2′-biindole-3-carboxamide] | < 100 | > 64 | > 64 | – | –
O=C(NCCc1ccncc1)c1c(-c2cc3cc(Cl)ccc3[nH]2)[nH]c2cc(Br)ccc12 [Compound 142, 6-bromo-5′-chloro-N-(2-(pyridin-4-yl)ethyl)-1H,1′H-[2,2′-biindole]-3-carboxamide] | < 100 | > 64 | > 64 | – | –
CN(C)c1cc[n+](CCCNC(=O)c2c(-c3cc4cc(Cl)ccc4[nH]3)[nH]c3cc(Br)ccc23)cc1 [Compound 145, 1-(3-(6-bromo-5′-chloro-1H, 1′H-[2,2′-biindole]-3-carboxamido)propyl)-4-(dimethylamino)pyridin-1-ium] | < 100 | 8 | > 64 | 16 | 16
O=C(NCCC[n+]1ccc2ccccc2c1)c1c(-c2cc3cc(Cl)ccc3[nH]2)[nH]c2cc(Br)ccc12 [Compound 146, 2-(3-(6-bromo-5′-chloro-1H,1′H-[2,2′-biindole]-3-carboxamido)propyl)isoquinolin-2-ium] | < 100 | 32 | > 64 | 32 | 64
C[N+](C)(C)CCCNC(=O)c1c(-c2cc3cc(Cl)ccc3[nH]2)[nH]c2cc(Br)ccc12 [Compound 147, 3-(6-bromo-5′-chloro-1H,1′H-[2,2′-biindole]-3-carboxamido)-N,N,N-trimethylpropan-1-aminium] | < 100 | 16 | > 64 | 16 | 16
COc1ccc(NC(=O)Nc2nc3cc(Br)ccc3s2)cc1 [Compound 152, 1-(5-bromobenzo[d]thiazol-2-yl)-3-(4-methoxyphenyl)urea] | – | 1 (≈ 2.64 µM) | > 64 | 1 (≈ 2.64 µM) | 2 (≈ 5.29 µM)
O=C(Nc1ccc(Cl)c(Cl)c1)Nc1nc2cc(Br)ccc2s1 [Compound 155, 1-(5-bromobenzo[d]thiazol-2-yl)-3-(3,4-dichlorophenyl)urea] | – | 0.5 (≈ 1.2 µM) | > 64 | 0.5 (≈ 1.2 µM) | 0.5 (≈ 1.2 µM)
O=C(Nc1ccc(Cl)c(C(F)(F)F)c1)Nc1nc2cc(Br)ccc2s1 [Compound 156, 1-(5-bromobenzo[d]thiazol-2-yl)-3-(4-chloro-3-(trifluoromethyl)phenyl)urea] | – | 0.5 (≈ 1.11 µM) | 64 (≈ 142 µM) | 1 (≈ 2.22 µM) | 1 (≈ 2.22 µM)
O=C(NCc1ccccc1)Nc1nc2cc(Br)ccc2s1 [Compound 158, 1-benzyl-3-(5-bromobenzo[d]thiazol-2-yl)urea] | – | 2 (≈ 5.52 µM) | > 64 | 1 (≈ 2.76 µM) | 2 (≈ 5.52 µM)
COC(=O)c1c(NC(=O)Nc2ccc(Cl)cc2)[nH]c2cc(Br)ccc12 [Compound 181, Methyl 6-bromo-2-(3-(4-chlorophenyl)ureido)-1 H-indole-3-carboxylate] | – | > 64 | > 64 | – | –
CC(=O)OCCCNC(=O)c1c(-c2cc3cc(Cl)ccc3[nH]2)[nH]c2cc(Br)ccc12 [Compound 183, 3-(6-Bromo-5′-chloro-1H,1′H-[2,2′-biindole]-3-carboxamido)propyl Acetate] | < 100 | > 64 | > 64 | – | –
CC(C)[C@@H](C(=O)OCCCNC(=O)c1c(-c2cc3cc(Cl)ccc3[nH]2)[nH]c2cc(Br)ccc12)N(C)C [Compound 185, 3-(6-Bromo-5′-chloro-1H,1′H-[2,2′-biindole]-3-carboxamido)propyl Dimethyl-L-valinate] | < 100 | > 64 | > 64 | – | –
COC(=O)COc1cc2[nH]c(-c3cc4ccc(Br)cc4[nH]3)cc2cc1Cl [Compound 188, Methyl 2-((6′-bromo-5-chloro-1H,1′H-[2,2′-biindol]-6-yl)oxy)acetate] | < 100 | > 64 | > 64 | – | –
CN(C)CCNC(=O)COc1cc2[nH]c(-c3cc4ccc(Br)cc4[nH]3)cc2cc1Cl [Compound 189, 2-((6′-Bromo-5-chloro-1H,1′H-[2,2′-biindol]-6-yl)oxy)-N-(2-(dimethylamino)ethyl)acetamide] | < 100 | > 64 | > 64 | – | –
O=C(COc1cc2[nH]c(-c3cc4ccc(Br)cc4[nH]3)cc2cc1Cl)NCCC[n+]1ccccc1 [Compound 190, 1-(3-(2-((6′-Bromo-5-chloro-1H,1′H-[2,2′-biindol]-6-yl)oxy)acetamido)propyl)pyridin-1-ium Acetate] | < 100 | 8 | > 64 | 8 | 16
O=C(COc1cc2[nH]c(-c3cc4ccc(Br)cc4[nH]3)cc2cc1Cl)NCCO [Compound 192, 2-((6′-Bromo-5-chloro-1H,1′H-[2,2′-biindol]-6-yl)oxy)-N-(2-hydroxyethyl)acetamide] | < 100 | > 64 | > 64 | – | –
CN1CCN(CCNC(=O)COc2cc3[nH]c(-c4cc5ccc(Br)cc5[nH]4)cc3cc2Cl)C(c2ccccc2)C1 (centres unmarked) [Compound 194, 2-((6′-Bromo-5-chloro-1H,1′H-[2,2′-biindol]-6-yl)oxy)-N-(2-(4-methyl-2-phenylpiperazin-1-yl)ethyl)acetamide] | – | > 64 | > 64 | – | –
O=C(COc1cc2[nH]c(-c3cc4ccc(Br)cc4[nH]3)cc2cc1Cl)NS(=O)(=O)c1ccc(NC(=O)C(F)(F)F)cc1 [Compound 195, N-(4-(N-(2-((6′-Bromo-5-chloro-1H, 1′H-[2,2′-biindol]-6-yl)oxy)acetyl)sulfamoyl)phenyl)-2,2,2-trifluoroacetamide] | < 100 | 64 (≈ 95.5 µM) | > 64 | 64 (≈ 95.5 µM) | –
O=C(O)CNC(=O)c1c(-c2cc3cc(Cl)ccc3[nH]2)[nH]c2cc(Br)ccc12 [Compound 204, (6-Bromo-5′-chloro-1H,1′H-[2,2′-biindole]-3-carbonyl)glycine] | < 100 | 64 (≈ 143 µM) | > 64 | – | –
Clc1cnc2nc(-c3cc4ccc(Br)cc4[nH]3)[nH]c2c1 [Compound 209, 2-(6-Bromo-1H-indol-2-yl)-6-chloro-1H-imidazo[4,5-b]pyridine] | – | > 64 | > 64 | – | –
Brc1ccc2cc(-c3nc4ncc(Br)cc4[nH]3)[nH]c2c1 [Compound 210, 6-Bromo-2-(6-bromo-1H-indol-2-yl)-1H-imidazo[4,5-b]pyridine] | – | > 64 | > 64 | – | –
OCCn1c(-c2cc3ccc(Br)cc3[nH]2)nc2cc(Cl)c(Cl)cc21 [Compound 211, 2-(2-(6-Bromo-1H-indol-2-yl)-5,6-dichloro-1H-benzo[d]imidazol-1-yl)ethan-1-ol] | – | > 64 | > 64 | – | –
CN(C)CCn1c(-c2cc3ccc(Br)cc3[nH]2)nc2cc(Cl)c(Cl)cc21 [Compound 212, 2-(2-(6-Bromo-1H-indol-2-yl)-5,6-dichloro-1H-benzo[d]imidazol-1-yl)-N,N-dimethylethan-1-amine] | – | > 64 | > 64 | – | –
O=C(O)Cn1c(-c2cc3ccc(Br)cc3[nH]2)nc2cc(Cl)c(Cl)cc21 [Compound 213, 2-(2-(6-Bromo-1H-indol-2-yl)-5,6-dichloro-1H-benzo[d]imidazol-1-yl)acetic Acid] | – | > 64 | > 64 | – | –
CC(C)(C)OC(=O)CCn1c(-c2cc3ccc(Br)cc3[nH]2)nc2cc(Cl)c(Cl)cc21 [Compound 214, tert-Butyl 3-(2-(6-bromo-1H-indol-2-yl)-5,6-dichloro-1H-benzo[d]imidazol-1-yl)propanoate] | – | > 64 | > 64 | – | –
